Test results taken from patent US4141988A, “2,9-Dioxatricyclo[4,3,1,0^3,7 ]decane derivatives, processes for their preparation and pharmaceutical compositions thereof” (Kali-Chemie Pharma GmbH, priority 1977, dated 1979).

Legend:
bradykinin induced pain = bradykinin induced pain test in rats (s.c.); format: in vivo, rat
Description: For example, the MED of both, the test substance 32-527 and morphine, is 0,56 mg/kg in the so-called step-irritation test in the rhesus monkey upon s.c. administration. Upon s.c. administration, the ED50 of the two substances for inhibiting the bradykinin induced pain in rats are as follows: […]

rhesus monkey [1] = assay: step-irritation test in the rhesus monkey; format: in vivo
[2] = inhibition of intestinal motility in mice; conditions: mouse, in vivo, po, read-out: intestinal motility inhibiting ED50
rhesus monkey [3] = assay: self-administration test (addiction) in the rhesus monkey; format: in vivo; conditions: contrary to morphine
Description: test substance No. 32-527 < 5,6 mg/kg and morphine 3,6 mg/kg.

acute toxicity = format: in vivo; conditions: compared with propoxyphene or profadol
[4] = tested on: mice, rats and rhesus monkeys; assay: analgesic activity in mice, rats and rhesus monkeys; format: in vivo

Row | Compound | ED50 for inhibiting the bradykinin induced pain (bradykinin induced pain) | minimal effective dose (rhesus monkey [1]; Macaca mulatta, sc, read-out: MED) | ED50 [2] | MED (rhesus monkey [1]; step-irritation test, rhesus monkey, s.c.) | addiction syndroms in the self-administration test (rhesus monkey [3]) | acute toxicity (acute toxicity) | analgesic activity compared with morphine ([4]; enteral and parenteral) | analgesic activity ([4]; enteral and parenteral administration)
1 | CN1CC[C@]23c4c5ccc(O)c4O[C@H]2[C@@H](O)C=C[C@H]3[C@H]1C5 [morphine, reference compound] | 3,6 mg/kg | 0.56 mg/kg | 39 mg/kg |  |  |  |  | 
2 | COC1OC2OC3(C)C(NCCc4ccccc4Cl)CC(C2C)C13.Cl (stereo not drawn) [test substance No. 32-527, 4 α-(o-chlorophenethylamino)-3,10-dimethyl-8-methoxy-2,9-dioxatricyclo[4,3,1,0^3,7]decane hydrochloride] | < 5,6 mg/kg |  |  | 0,56 mg/kg | practically no addiction syndroms are observed | similarly low toxicity as that of propoxyphene or profadol | of about the same order as that of morphine | exhibits analgesic activities
